Broadly, the IC50 is the point on the concentration scale where inhibition reaches its midpoint.

The structures appear in SMILES notation. Where only a bound is given, the exact number is not on record here.

The test system of one test is NCIH929.1 cells. In words: Cell viability assay for Table 2 (CellTiter-Glo 2.0, ATP quantification, 96 hr). The test is classed as cell-based. To be noted: 96 h, NCIH929.1 cell viability, 96 hr, top concentration 1 μM, 14 points half log titration; read-out: IC50. The source says: Cell Viability Assay for Table 2
CellTiter-Glo® 2.0 Assay was purchased from Promega (Madison, Wis., USA). NCIH929.1 cell line was purchased from ATCC (Manassas, Va., USA). Cell culture flasks and 384-well microplates were acquired from VWR (Radnor, Pa., USA).
(ATP-based viability assays read luminescence as a measure of living cells.)
As to `O=C1CCC(N2C(=O)c3cccc4c(Cc5ccc(CN6CCN(c7ccc(F)cc7F)CC6)cc5)ccc2c34)C(=O)N1` (single isomer, unassigned) [Compound 256, 3-(6-(4-((4-(2,4-difluorophenyl)piperazin-1-yl)methyl)benzyl)-2-oxobenzo[cd]indol-1(2H)-yl)piperidine-2,6-dione], the IC50 is less than 1 nM. On the same count and under the same terms, next, `CC1(CN2CCC(n3cc(Cc4ccc5c6c(cccc46)C(=O)N5C4CCC(=O)NC4=O)cn3)CC23CC3)CCC1` (single isomer, unassigned) [Compound 274, 3-[6-[[1-[4-[(1-methylcyclobutyl)methyl]-4-azaspiro[2.5]octan-7-yl]pyrazol-4-yl]methyl]-2-oxo-benzo[cd]indol-1-yl]piperidine-2,6-dione]: less than 1 nM. Turning to `CC(C1CCC1)N1CCC(n2cc(Cc3ccc4c5c(cccc35)C(=O)N4C3CCC(=O)NC3=O)cn2)CC1` (single isomer, unassigned) [Compound 280, 3-[6-[[1-[1-[1-cyclobutylethyl]-4-piperidyl]pyrazol-4-yl]methyl]-2-oxo-benzo[cd]indol-1-yl]piperidine-2,6-dione], the IC50 is less than 1 nM. Same read-out and setting: next, `CC(C1CC1)N1CCC(n2cc(Cc3ccc4c5c(cccc35)C(=O)N4C3CCC(=O)NC3=O)cn2)CC1` (single isomer, unassigned) [Compound 282, 3-(6-((1-(1-(1-cyclopropylethyl)piperidin-4-yl)-1H-pyrazol-4-yl)methyl)-2-oxobenzo[cd]indol-1(2H)-yl)piperidine-2,6-dione]: less than 1 nM. Same read-out and setting: next, `CC(c1ccc(Cc2ccc3c4c(cccc24)C(=O)N3C2CCC(=O)NC2=O)cc1)N1CCN(c2ccccc2F)CC1` (single isomer, unassigned) [Compound 284, 3-[6-[[4-[1-[4-(2-fluorophenyl)piperazin-1-yl]ethyl]phenyl]methyl]-2-oxo-benzo[cd]indol-1-yl]piperidine-2,6-dione]: less than 1 nM.

For the compound `O=C1CCC(N2C(=O)c3cccc4c(Cc5cnn(C6CCN(C(=O)C78COC(C7)C8)CC6)c5)ccc2c34)C(=O)N1` (centres unmarked) [Compound 37, 3-(6-((1-(1-(2-oxabicyclo[2.1.1]hexane-4-carbonyl)piperidin-4-yl)-1H-pyrazol-4-yl)methyl)-2-oxobenzo[cd]indol-1(2H)-yl)piperidine-2,6-dione], the IC50 was less than 1 nM. Still for that read-out and setting: next, `N#CC1(C(=O)N2CCC(n3cc(Cc4ccc5c6c(cccc46)C(=O)N5C4CCC(=O)NC4=O)cn3)CC2)CC1` (centres unmarked) [Compound 38, 1-(4-(4-((1-(2,6-dioxopiperidin-3-yl)-2-oxo-l,2-dihydrobenzo[cd]indol-6-yl)methyl)-1H-pyrazol-1-yl)piperidine-1-carbonyl)cyclopropane-1-carbonitrile]: less than 1 nM. The same measure, in the same setting: next, `N#CC1(C(=O)N2CCC(n3cc(Cc4ccc5c6c(cccc46)C(=O)N5C4CCC(=O)NC4=O)cn3)CC2)CCC1` (centres unmarked) [Compound 39, 1-(4-(4-((1-(2,6-dioxopiperidin-3-yl)-2-oxo-1,2-dihydrobenzo[cd]indol-6-yl)methyl)-1H-pyrazol-1-yl)piperidine-1-carbonyl)cyclobutane-1-carbonitrile]: less than 1 nM; `CC(C)(C#N)C(=O)N1CCC(n2cc(Cc3ccc4c5c(cccc35)C(=O)N4C3CCC(=O)NC3=O)cn2)CC1` (centres unmarked) [Compound 40, 3-(4-(4-((1-(2,6-dioxopiperidin-3-yl)-2-oxo-1,2-dihydrobenzo[cd]indol-6-yl)methyl)-1H-pyrazol-1-yl)piperidin-1-yl)-2,2-dimethyl-3-oxopropanenitrile]: less than 1 nM. For the compound `CC1(C(=O)N2CCC(n3cc(Cc4ccc5c6c(cccc46)C(=O)N5C4CCC(=O)NC4=O)cn3)CC2)CCOCC1` (centres unmarked) [Compound 41, 3-(6-((1-(1-(4-methyltetrahydro-2H-pyran-4-carbonyl)piperidin-4-yl)-1H-pyrazol-4-yl)methyl)-2-oxobenzo[cd]indol-1(2H)-yl)piperidine-2,6-dione], the IC50 was less than 1 nM. On to `O=C1CCC(N2C(=O)c3cccc4c(Cc5cnn(C6CCN(C(=O)c7ccncc7)CC6)c5)ccc2c34)C(=O)N1` (centres unmarked) [Compound 42, 3-(6-((1-(1-isonicotinoylpiperidin-4-yl)-1H-pyrazol-4-yl)methyl)-2-oxobenzo[cd]indol-1(2H)-yl)piperidine-2,6-dione], for which the half-maximal inhibitory concentration (IC50) is less than 1 nM.

On to `O=C1CCC(N2C(=O)c3cccc4c(Cc5cnn(C6CCN(C(=O)c7cccnc7)CC6)c5)ccc2c34)C(=O)N1` (centres unmarked) [Compound 43, 3-(6-((1-(1-nicotinoylpiperidin-4-yl)-1H-pyrazol-4-yl)methyl)-2-oxobenzo[cd]indol-1(2H)-yl)piperidine-2,6-dione], for which the IC50 was less than 1 nM. The same measure, in the same setting: next, `CC(C)(C)C(=O)N1CCC(n2cc(Cc3ccc4c5c(cccc35)C(=O)N4C3CCC(=O)NC3=O)cn2)CC1` (centres unmarked) [Compound 44, 3-(2-oxo-6-((1-(1-pivaloylpiperidin-4-yl)-1H-pyrazol-4-yl)methyl)benzo[cd]indol-1(2H)-yl)piperidine-2,6-dione]: less than 1 nM; `Cc1cccc(C)c1C(=O)N1CCC(n2cc(Cc3ccc4c5c(cccc35)C(=O)N4C3CCC(=O)NC3=O)cn2)CC1` (centres unmarked) [Compound 45, 3-(6-((1-(1-(2,6-dimethylbenzoyl)piperidin-4-yl)-1H-pyrazol-4-yl)methyl)-2-oxobenzo[cd]indol-1(2H)-yl)piperidine-2,6-dione]: less than 1 nM; `O=C1CCC(N2C(=O)c3cccc4c(Cc5cnn(C6CCN(C(=O)c7ccccn7)CC6)c5)ccc2c34)C(=O)N1` (centres unmarked) [Compound 46, 3-(2-oxo-6-((1-(1-picolinoylpiperidin-4-yl)-1H-pyrazol-4-yl)methyl)benzo[cd]indol-1(2H)-yl)piperidine-2,6-dione]: less than 1 nM. On the same count and under the same terms, next, `O=C1CCC(N2C(=O)c3cccc4c(Cc5cnn(C6CCN(C(=O)c7ccccc7)CC6)c5)ccc2c34)C(=O)N1` (centres unmarked) [Compound 47, 3-(6-((1-(1-benzoylpiperidin-4-yl)-1H-pyrazol-4-yl)methyl)-2-oxobenzo[cd]indol-1(2H)-yl)piperidine-2,6-dione]: less than 1 nM.

For `O=C1CCC(N2C(=O)c3cccc4c(Cc5cnn(C6CCN(C(=O)C78CC(CO7)C8)CC6)c5)ccc2c34)C(=O)N1` (centres unmarked) [Compound 48, 3-(6-((1-(1-(2-oxabicyclo[2.1.1]hexane-1-carbonyl)piperidin-4-yl)-1H-pyrazol-4-yl)methyl)-2-oxobenzo[cd]indol-1(2H)-yl)piperidine-2,6-dione], the IC50 was less than 1 nM.

On to `CC12CC(C(=O)N3CCC(n4cc(Cc5ccc6c7c(cccc57)C(=O)N6C5CCC(=O)NC5=O)cn4)CC3)(CCO1)C2` (centres unmarked) [Compound 49, 3-(6-((1-(1-(1-methyl-2-oxabicyclo[3.1.1]heptane-5-carbonyl)piperidin-4-yl)-1H-pyrazol-4-yl)methyl)-2-oxobenzo[cd]indol-1(2H)-yl)piperidine-2,6-dione], for which the 50% inhibitory concentration (IC50) was less than 1 nM. `O=C1CCC(N2C(=O)c3cccc4c(Cc5cnn(C6CCN(C(=O)C78CCCC(C7)C8)CC6)c5)ccc2c34)C(=O)N1` (centres unmarked) [Compound 50, 3-(6-((1-(1-(bicyclo[3.1.1]heptane-1-carbonyl)piperidin-4-yl)-1H-pyrazol-4-yl)methyl)-2-oxobenzo[cd]indol-1(2H)-yl)piperidine-2,6-dione]: the half-maximal inhibitory concentration (IC50) was less than 1 nM. `O=C1CCC(N2C(=O)c3cccc4c(Cc5cnn(C6CCN(C(=O)C7(C(F)(F)F)CCC7)CC6)c5)ccc2c34)C(=O)N1` (centres unmarked) [Compound 51, 3-(2-oxo-6-((1-(1-(1-(trifluoromethyl)cyclobutane-1-carbonyl)piperidin-4-yl)-1H-pyrazol-4-yl)methyl)benzo[cd]indol-1(2H)-yl)piperidine-2,6-dione]: the half-maximal inhibitory concentration (IC50) was less than 1 nM. On the same count and under the same terms, next, `O=C1CCC(N2C(=O)c3cccc4c(Cc5cnn(C6CCN(C(=O)C7(C(F)(F)F)CC7)CC6)c5)ccc2c34)C(=O)N1` (centres unmarked) [Compound 52, 3-(2-oxo-6-((1-(1-(1-(trifluoromethyl)cyclopropane-1-carbonyl)piperidin-4-yl)-1H-pyrazol-4-yl)methyl)benzo[cd]indol-1(2H)-yl)piperidine-2,6-dione]: less than 1 nM.

Staying with this test, now noted: NCIH929.1 cell viability, 96 hr, top concentration 1 μM, 14 points half log titration; read-out: IC50.
Take `O=C1CCC(N2C(=O)c3cccc4c(Cc5ccc(CN6CCN(c7ccc(Cl)cc7F)CC6)cc5)ccc2c34)C(=O)N1` (single isomer, unassigned) [Compound 255, 3-[6-[[4-[[4-(4-chloro-2-fluoro-phenyl)piperazin-1-yl]methyl]phenyl]methyl]-2-oxo-benzo[cd]indol-1-yl]piperidine-2,6-dione]: the IC50 was less than 1 nM. Same read-out and setting: next, `O=C1CCC(N2C(=O)c3cccc4c(Cc5ccc(CN6CCN(c7ccc(F)cc7F)CC6)cc5)ccc2c34)C(=O)N1` (single isomer, unassigned) [Compound 257, 3-(6-(4-((4-(2,4-difluorophenyl)piperazin-1-yl)methyl)benzyl)-2-oxobenzo[cd]indol-1(2H)-yl)piperidine-2,6-dione]: less than 1 nM; `CC(C1CCC1)N1CCC(n2cc(Cc3ccc4c5c(cccc35)C(=O)N4C3CCC(=O)NC3=O)cn2)CC1` (single isomer, unassigned) [Compound 281, 3-[6-[[1-[1-[1-cyclobutylethyl]-4-piperidyl]pyrazol-4-yl]methyl]-2-oxo-benzo[cd]indol-1-yl]piperidine-2,6-dione]: less than 1 nM; `CC(C1CC1)N1CCC(n2cc(Cc3ccc4c5c(cccc35)C(=O)N4C3CCC(=O)NC3=O)cn2)CC1` (single isomer, unassigned) [Compound 283, 3-(6-((1-(1-(1-cyclopropylethyl)piperidin-4-yl)-1H-pyrazol-4-yl)methyl)-2-oxobenzo[cd]indol-1(2H)-yl)piperidine-2,6-dione]: less than 1 nM. Still for that read-out and setting: next, `CC(c1ccc(Cc2ccc3c4c(cccc24)C(=O)N3C2CCC(=O)NC2=O)cc1)N1CCN(c2ccccc2F)CC1` (single isomer, unassigned) [Compound 285, 3-[6-[[4-[1-[4-(2-fluorophenyl)piperazin-1-yl]ethyl]phenyl]methyl]-2-oxo-benzo[cd]indol-1-yl]piperidine-2,6-dione]: less than 1 nM.

Values taken from patent US20230082430A1 (C4 Therapeutics, Inc., priority 2019, published 2023).
